{"source": "patent US8415378B2", "about": "“Isoxazol-3(2H)-one analogs as therapeutic agents” (AstraZeneca AB, priority 2009, dated 2013)"}
{"biological_target": "T1, human Glu-plasminogen (Homo sapiens, UniProt P00747)", "T1 construct": "human Glu-plasminogen; purchased Chromogenix, Italy", "T1 sequence (P00747 20-810 limits assumed)": "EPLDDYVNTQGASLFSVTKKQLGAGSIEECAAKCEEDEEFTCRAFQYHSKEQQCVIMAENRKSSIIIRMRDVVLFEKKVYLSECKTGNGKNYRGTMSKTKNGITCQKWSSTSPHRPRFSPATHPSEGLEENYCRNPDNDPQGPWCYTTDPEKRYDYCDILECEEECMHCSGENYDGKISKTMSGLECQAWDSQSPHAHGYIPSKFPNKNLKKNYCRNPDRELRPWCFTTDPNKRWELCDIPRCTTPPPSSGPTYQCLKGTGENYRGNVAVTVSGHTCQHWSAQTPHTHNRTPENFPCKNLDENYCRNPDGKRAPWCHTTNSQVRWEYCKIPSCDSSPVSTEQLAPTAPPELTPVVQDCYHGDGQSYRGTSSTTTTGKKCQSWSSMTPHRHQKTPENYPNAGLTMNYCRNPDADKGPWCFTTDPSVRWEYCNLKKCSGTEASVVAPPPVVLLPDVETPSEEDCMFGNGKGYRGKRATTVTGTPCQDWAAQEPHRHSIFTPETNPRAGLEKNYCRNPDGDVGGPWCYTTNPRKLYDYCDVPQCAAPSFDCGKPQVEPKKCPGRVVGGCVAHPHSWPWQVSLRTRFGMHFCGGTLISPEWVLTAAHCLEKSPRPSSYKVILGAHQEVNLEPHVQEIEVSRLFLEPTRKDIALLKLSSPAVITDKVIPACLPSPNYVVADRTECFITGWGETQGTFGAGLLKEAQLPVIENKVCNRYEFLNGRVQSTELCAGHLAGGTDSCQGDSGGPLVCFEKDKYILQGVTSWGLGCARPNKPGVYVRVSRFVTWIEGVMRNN", "assay": "Clot-lysis buffer assay", "type": "biochemical", "protocol": "The assay method used for evaluating biological activity of the compounds according to the invention was Clot-lysis buffer assay.\nTested substance were added to the reaction mixture in 10% DMSO. Reaction was started by the addition of thrombin.\nMeasured according to the Clot-lysis buffer assay described above.", "units": {"IC50": "µM"}}
{"smiles": "O=c1cc([C@H]2CCN[C@@H](c3cc(F)c(C(F)(F)F)c(F)c3)C2)o[nH]1", "note": "[Example 70, 5-((2R,4S)-2-(3,5-Difluoro-4-(trifluoromethyl)phenyl)piperidin-4-yl)isoxazol-3(2H)-one]", "IC50": 2.5}
{"smiles": "O=c1cc([C@@H]2CCN[C@H](c3cc(F)c(F)c(F)c3)C2)o[nH]1", "note": "[Example 61, 5-((2S,4R)-2-(3,4,5-Trifluorophenyl)piperidin-4-yl)isoxazol-3(2H)-one]", "IC50": 858}
{"smiles": "O=c1cc([C@H]2CCN[C@@H](Cc3cccc(C(F)(F)F)c3)C2)o[nH]1", "note": "[Example 107, 5-((2R,4S)-2-(3-(Trifluoromethyl)benzyl)piperidin-4-yl)isoxazol-3(2H)-one]", "IC50": 1.7}
{"smiles": "O=c1cc([C@@H]2CCN[C@H](Cc3cc(F)c(F)c(F)c3)C2)o[nH]1", "note": "[Example 144, 5-((2S,4R)-2-(3,4,5-Trifluorobenzyl)piperidin-4-yl)isoxazol-3(2H)-one]", "IC50": 88.2}
{"smiles": "O=c1cc([C@@H]2CCN[C@@H](COC3CCCCC3)C2)o[nH]1", "note": "(relative stereo) [Example 86, 5-(Trans-2-(cyclohexyloxymethyl)piperidin-4-yl)isoxazol-3(2H)-one]", "IC50": 15.6}
{"smiles": "O=c1cc([C@@H]2CCN[C@@H](c3ccc(C(F)(F)F)cc3)C2)o[nH]1", "note": "(relative stereo) [Example 35, 5-(Trans-2-(4-(trifluoromethyl)phenyl)piperidin-4-yl)isoxazol-3(2H)-one]", "IC50": 14.4}
{"smiles": "CS(=O)(=O)c1ccc(C2CC(c3cc(=O)[nH]o3)CCN2)cc1", "note": "(stereo not drawn) [Example 39, 5-((Trans-2-(4-(methylsulfonyl)phenyl)piperidin-4-yl)isoxazol-3(2H)-one]", "IC50": 97.3}
{"smiles": "O=c1cc([C@H]2CCN[C@@H](c3ccc(C(F)(F)F)c(F)c3)C2)o[nH]1", "note": "[Example 75, 5-((2R,4S)-2-(3-Fluoro-4-(trifluoromethyl)phenyl)piperidin-4-yl)isoxazol-3(2H)-one]", "IC50": 3.1}
{"smiles": "O=c1cc([C@H]2CCN[C@@H](c3ccc(C(F)(F)F)cc3F)C2)o[nH]1", "note": "[Example 73, 5-((2R,4S)-2-(2-Fluoro-4-(trifluoromethyl)phenyl)piperidin-4-yl)isoxazol-3(2H)-one]", "IC50": 1.54}
{"smiles": "Cn1nnc([C@H]2C[C@@H](c3cc(=O)[nH]o3)CCN2)n1", "note": "[Example 81, 5-((2R,4S)-2-(2-Methyl-2H-tetrazol-5-yl)piperidin-4-yl)isoxazol-3(2H)-one]", "IC50": 1.6}
{"smiles": "O=c1cc([C@H]2CCN[C@@H](c3ccc(OC(F)(F)F)cc3F)C2)o[nH]1", "note": "[Example 58, 5-((2R,4S)-2-(2-Fluoro-4-(trifluoromethoxy)phenyl)piperidin-4-yl)isoxazol-3(2H)-one]", "IC50": 2.1}
{"smiles": "CC(C)(C)c1ccc([C@@H]2C[C@H](c3cc(=O)[nH]o3)CCN2)s1", "note": "[Example 43, 5-((2S,4R)-2-(5-tert-Butylthiophen-2-yl)piperidin-4-yl)isoxazol-3(2H)-one]", "IC50": 77.5}
{"smiles": "O=c1cc([C@@H]2CCN[C@H](c3cc(Cl)cc(Cl)c3)C2)o[nH]1", "note": "[Example 56, 5-((2S,4R)-2-(3,5-Dichlorophenyl)piperidin-4-yl)isoxazol-3(2H)-one]", "IC50": 43.8}
{"smiles": "O=c1cc([C@@H]2CCN[C@@H](c3ccc(OC(F)(F)F)cc3F)C2)o[nH]1", "note": "(relative stereo) [Example 59, 5-(Trans-2-(2-fluoro-4-(trifluoromethoxy)phenyl)piperidin-4-yl)isoxazol-3(2H)-one]", "IC50": 70.7}
{"smiles": "O=c1cc([C@@H]2CCN[C@H](Cc3cccc(C(F)(F)F)c3)C2)o[nH]1", "note": "[Example 108, 5-((2S,4R)-2-(3-(Trifluoromethyl)benzyl)piperidin-4-yl)isoxazol-3(2H)-one]", "IC50": 70.5}
{"smiles": "O=c1cc([C@H]2CCN[C@@H](C3CCCCC3)C2)o[nH]1", "note": "[Example 79, 5-((2R,4S)-2-Cyclohexylpiperidin-4-yl)isoxazol-3(2H)-one]", "IC50": 3.3}
{"smiles": "O=c1cc([C@H]2CCN[C@@H](c3ccc(Cl)cc3F)C2)o[nH]1", "note": "[Example 45, 5-((2R,4S)-2-(4-Chloro-2-fluorophenyl)piperidin-4-yl)isoxazol-3(2H)-one]", "IC50": 2.35}
{"smiles": "O=c1cc([C@@H]2CCN[C@@H](Cc3ccc(C(F)(F)F)c(F)c3)C2)o[nH]1", "note": "(relative stereo) [Example 142, 5-(Trans-2-(3-fluoro-4-(trifluoromethyl)benzyl)piperidin-4-yl)isoxazol-3(2H)-one]", "IC50": 1.8}
{"smiles": "O=c1cc([C@@H]2CCN[C@@H](CCc3ccc(F)cc3)C2)o[nH]1", "note": "(relative stereo) [Example 94, 5-(Trans-2-(4-fluorophenethyl)piperidin-4-yl)isoxazol-3(2H)-one]", "IC50": 4.6}
{"smiles": "O=c1cc([C@H]2CCN[C@@H](Cc3cc(F)c(F)c(F)c3)C2)o[nH]1", "note": "[Example 143, 5-((2R,4S)-2-(3,4,5-Trifluorobenzyl)piperidin-4-yl)isoxazol-3(2H)-one]", "IC50": 0.9}
{"smiles": "O=c1cc([C@@H]2CCN[C@@H](c3ccc(F)cc3Cl)C2)o[nH]1", "note": "(relative stereo) [Example 48, 5-(Trans-2-(2-chloro-4-fluorophenyl)piperidin-4-yl)isoxazol-3(2H)-one]", "IC50": 44.3}
{"smiles": "CS(=O)(=O)c1ccc(C[C@H]2C[C@@H](c3cc(=O)[nH]o3)CCN2)cc1", "note": "[Example 117, 5-((2R,4S)-2-(4-(Methylsulfonyl)benzyl)piperidin-4-yl)isoxazol-3(2H)-one]", "IC50": 0.8}
{"smiles": "O=c1cc([C@H]2CCN[C@@H](Cc3cc(F)ccc3F)C2)o[nH]1", "note": "[Example 124, 5-((2R,4S)-2-(2,5-Difluorobenzyl)piperidin-4-yl)isoxazol-3(2H)-one]", "IC50": 1.2}
{"smiles": "CC(C)(C)c1ccc(C[C@@H]2C[C@@H](c3cc(=O)[nH]o3)CCN2)cc1", "note": "[Example 11, 5-((2S,4S)-2-(4-tert-Butylbenzyl)piperidin-4-yl)isoxazol-3(2H)-one]", "IC50": 4.3}
{"smiles": "O=c1cc([C@@H]2CCN[C@@H](Cc3ccc(F)c(F)c3)C2)o[nH]1", "note": "[Example 123, 5-((2R,4R)-2-(3,4-Difluorobenzyl)piperidin-4-yl)isoxazol-3(2H)-one]", "IC50": 147}
{"smiles": "O=c1cc([C@H]2CCN[C@@H](Cc3ccc(F)cc3F)C2)o[nH]1", "note": "[Example 134, 5-((2R,4S)-2-(2,4-Difluorobenzyl)piperidin-4-yl)isoxazol-3(2H)-one]", "IC50": 0.85}
{"smiles": "CS(=O)(=O)c1ccc(C[C@H]2C[C@H](c3cc(=O)[nH]o3)CCN2)cc1", "note": "(relative stereo) [Example 119, 5-(Trans-2-(4-(methylsulfonyl)benzyl)piperidin-4-yl)isoxazol-3(2H)-one]", "IC50": 10.7}
{"smiles": "O=c1cc([C@@H]2CCN[C@H](c3ccc(C(F)(F)F)c(F)c3)C2)o[nH]1", "note": "[Example 76, 5-((2S,4R)-2-(3-Fluoro-4-(trifluoromethyl)phenyl)piperidin-4-yl)isoxazol-3(2H)-one]", "IC50": 190}
{"smiles": "O=c1cc([C@@H]2CCN[C@H](Cc3cc(F)ccc3F)C2)o[nH]1", "note": "[Example 125, 5-((2S,4R)-2-(2,5-Difluorobenzyl)piperidin-4-yl)isoxazol-3(2H)-one]", "IC50": 92.9}
{"smiles": "O=c1cc([C@H]2CCN[C@@H](COC3CCCCC3)C2)o[nH]1", "note": "[Example 84, 5-((2R,4S)-2-(Cyclohexyloxymethyl)piperidin-4-yl)isoxazol-3(2H)-one]", "IC50": 1.7}
{"smiles": "O=c1cc([C@H]2CCN[C@@H](c3ccc(Cl)cc3)C2)o[nH]1", "note": "[Example 27, 5-((2R,4S)-2-(4-Chlorophenyl)piperidin-4-yl)isoxazol-3(2H)-one]", "IC50": 1.5}
{"smiles": "O=c1cc([C@H]2CCN[C@H](Cc3ccc(C(F)(F)F)cc3)C2)o[nH]1", "note": "[Example 105, 5-((2S,4S)-2-(4-(Trifluoromethyl)benzyl)piperidin-4-yl)isoxazol-3(2H)-one]", "IC50": 7.2}
{"smiles": "O=c1cc([C@@H]2CCN[C@H](Cc3cc(F)cc(F)c3)C2)o[nH]1", "note": "[Example 131, 5-((2S,4R)-2-(3,5-Difluorobenzyl)piperidin-4-yl)isoxazol-3(2H)-one]", "IC50": 128}
{"smiles": "O=c1cc([C@H]2CCN[C@@H](Cc3cc(F)cc(F)c3)C2)o[nH]1", "note": "[Example 130, 5-((2R,4S)-2-(3,5-Difluorobenzyl)piperidin-4-yl)isoxazol-3(2H)-one]", "IC50": 1.1}
{"smiles": "Cc1cc([C@H]2C[C@H](c3cc(=O)[nH]o3)CCN2)ccc1C(F)(F)F", "note": "(relative stereo) [Example 69, 5-(Trans-2-(3-methyl-4-(trifluoromethyl)phenyl)piperidin-4-yl)isoxazol-3(2H)-one]", "IC50": 92.5}
{"smiles": "O=c1cc([C@@H]2CCN[C@@H](Cc3cc(F)c(F)c(F)c3)C2)o[nH]1", "note": "(relative stereo) [Example 145, 5-(Trans-2-(3,4,5-trifluorobenzyl)piperidin-4-yl)isoxazol-3(2H)-one]", "IC50": 4.3}
{"smiles": "O=c1cc([C@H]2CCN[C@@H](c3ccc(Cl)cc3Cl)C2)o[nH]1", "note": "[Example 51, 5-((2R,4S)-2-(2,4-Dichlorophenyl)piperidin-4-yl)isoxazol-3(2H)-one]", "IC50": 0.9}
{"smiles": "O=c1cc([C@H]2CCN[C@@H](Cc3ccccc3C(F)(F)F)C2)o[nH]1", "note": "[Example 110, 5-((2R,4S)-2-(2-(Trifluoromethyl)benzyl)piperidin-4-yl)isoxazol-3(2H)-one]", "IC50": 1.2}
{"smiles": "O=c1cc([C@@H]2CCN[C@H](c3cccc(C(F)(F)F)c3)C2)o[nH]1", "note": "[Example 31, 5-((2S,4R)-2-(3-(Trifluoromethyl)phenyl)piperidin-4-yl)isoxazol-3(2H)-one]", "IC50": 33.1}
{"smiles": "O=c1cc([C@@H]2CCN[C@@H](Cc3ccc(C(F)(F)F)cc3)C2)o[nH]1", "note": "[Example 106, 5-((2R,4R)-2-(4-(Trifluoromethyl)benzyl)piperidin-4-yl)isoxazol-3(2H)-one]", "IC50": 88.8}
{"smiles": "O=c1cc([C@H]2CCN[C@@H](c3cc(F)c(F)cc3F)C2)o[nH]1", "note": "[Example 63, 5-((2R,4S)-2-(2,4,5-Trifluorophenyl)piperidin-4-yl)isoxazol-3(2H)-one]", "IC50": 3.22}
{"smiles": "CC(C)(C)c1cccc([C@H]2C[C@@H](c3cc(=O)[nH]o3)CCN2)c1", "note": "[Example 36, 5-((2R,4S)-2-(3-tert-Butylphenyl)piperidin-4-yl)isoxazol-3(2H)-one]", "IC50": 1.9}
{"smiles": "O=c1cc([C@@H]2CCN[C@@H](c3ccc(F)cc3)C2)o[nH]1", "note": "(relative stereo) [Example 26, 5-(Trans-2-(4-fluorophenyl)piperidin-4-yl)isoxazol-3(2H)-one]", "IC50": 73.8}
